Data from PubChem BioAssay (NCI).
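These data come from cells grown in 96-well plates and exposed to compound for 48 hours at five concentrations. At the GI50, growth is halved. TGI is the concentration that stops growth completely.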

How the values were obtained:
Assay in all cases: NCI anticancer screen, dose series, 48 h
[1] = system: HCT-15 colon
[2] = system: LOX IMVI melanoma
[3] = system: SN12C renal
[4] = system: SF-539 CNS
[5] = system: CAKI-1 renal
[6] = system: MOLT-4 leukemia
[7] = system: MDA-MB-435
[8] = system: A498 renal
[9] = system: SK-MEL-2 melanoma
[10] = system: OVCAR-8 ovarian
[11] = system: IGROV1 ovarian
[12] = system: K-562 leukemia
[13] = system: SNB-19 CNS
[14] = system: NCI-H23 lung
[15] = system: CCRF-CEM leukemia
[16] = system: UACC-257 melanoma
[17] = system: U251 CNS
[18] = system: HS 578T breast
[19] = system: UACC-62 melanoma
[20] = system: TK-10 renal
[21] = system: SF-268 CNS
[22] = system: HOP-92 NSCLC
[23] = system: HCC-2998 colon
[24] = system: OVCAR-4 ovarian
[25] = system: NCI/ADR-RES ovarian
[26] = system: HL-60(TB) leukemia
[27] = system: SK-MEL-5 melanoma
[28] = system: HCT-116 colon
[29] = system: T-47D breast
[30] = system: NCI-H460 lung
[31] = system: MDA-MB-231 breast
[32] = system: DU-145 prostate
[33] = system: M14 melanoma
[34] = system: UO-31 renal
[35] = system: COLO 205 colon
[36] = system: HT29 colon
[37] = system: SK-MEL-28 melanoma
[38] = system: 786-0 renal
[39] = system: KM12 colon
[40] = system: MALME-3M melanoma
[41] = system: HOP-62 NSCLC
[42] = system: BT-549 breast
[43] = system: A549 NSCLC
[44] = system: SF-295 CNS
[45] = system: PC-3 prostate
[46] = system: MCF7 breast
[47] = system: SR leukemia
[48] = system: SK-OV-3 ovarian
[49] = system: SW-620 colon
[50] = system: NCI-H226 lung
[51] = system: OVCAR-3 ovarian
[52] = system: NCI-H522 lung
[53] = system: OVCAR-5 ovarian
[54] = system: EKVX NSCLC
[55] = system: ACHN renal
[56] = system: SNB-75 CNS

COc1ccccc1N1CCN(CC(O)COc2c(Br)c(Br)c(Br)c3c2OC(C)(C)C3)CC1 (configuration not stated)
GI50 [1]: 4.72 µM
TGI [1]: 24.8 µM
GI50 [2]: 6.38 µM
TGI [2]: 18.9 µM
GI50 [3]: 14.6 µM
TGI [3]: 32.9 µM
GI50 [4]: 13.9 µM
TGI [4]: 32.1 µM
GI50 [5]: 4.56 µM
TGI [5]: 12.3 µM
GI50 [6]: 4.25 µM
TGI [6]: > 100 µM
GI50 [7]: 16.2 µM
TGI [7]: 55.1 µM
GI50 [8]: 20.4 µM
TGI [8]: 47.9 µM
GI50 [9]: 5.32 µM
TGI [9]: 20.9 µM
GI50 [10]: 31.5 µM
TGI [10]: 94.4 µM
GI50 [11]: 12.8 µM
TGI [11]: 38.9 µM
GI50 [12]: 4.7 µM
TGI [12]: > 100 µM
GI50 [13]: 17.9 µM
TGI [13]: 47.3 µM
GI50 [14]: 9.53 µM
TGI [14]: 38.4 µM
GI50 [15]: 92.2 µM
TGI [15]: > 100 µM
GI50 [16]: 23.4 µM
TGI [16]: > 100 µM
GI50 [17]: 10.6 µM
TGI [17]: 24.2 µM
GI50 [18]: 15 µM
TGI [18]: 42 µM
GI50 [19]: 12 µM
TGI [19]: 30.6 µM
GI50 [20]: 15.4 µM
TGI [20]: 46.7 µM
GI50 [21]: 33.3 µM
TGI [21]: > 100 µM
GI50 [22]: 6.15 µM
TGI [22]: 24.1 µM
GI50 [23]: 4.57 µM
TGI [23]: 16.5 µM
GI50 [24]: 8.93 µM
TGI [24]: > 100 µM
GI50 [25]: 11.2 µM
TGI [25]: > 100 µM
GI50 [26]: 5.05 µM
TGI [26]: > 100 µM
GI50 [27]: 4.91 µM
TGI [27]: 19.1 µM
GI50 [28]: 4.45 µM
TGI [28]: 20.1 µM
GI50 [29]: 15.8 µM
TGI [29]: > 100 µM
GI50 [30]: 8.78 µM
TGI [30]: 54.4 µM
GI50 [31]: 12.9 µM
TGI [31]: 32.1 µM
GI50 [32]: 16.5 µM
TGI [32]: 37.3 µM
GI50 [33]: 13.2 µM
TGI [33]: 37.5 µM
GI50 [34]: 9.66 µM
TGI [34]: 27.2 µM
GI50 [35]: 12.4 µM
TGI [35]: 30.4 µM
GI50 [36]: 4.1 µM
TGI [36]: 14 µM
GI50 [37]: 17.3 µM
TGI [37]: 36.8 µM
GI50 [38]: 12.8 µM
TGI [38]: 29.6 µM
GI50 [39]: 13.7 µM
TGI [39]: 56.1 µM
GI50 [40]: 16.1 µM
TGI [40]: 37.5 µM
GI50 [41]: 12.6 µM
TGI [41]: 30.8 µM
GI50 [42]: 12.5 µM
TGI [42]: 34.1 µM
GI50 [43]: 16.6 µM
TGI [43]: 96.5 µM
GI50 [44]: 4.68 µM
TGI [44]: 17.3 µM
GI50 [45]: 6.53 µM
TGI [45]: 43.4 µM
GI50 [46]: 25.5 µM
TGI [46]: > 100 µM
GI50 [47]: 7.83 µM
TGI [47]: > 100 µM
GI50 [48]: 49.4 µM
TGI [48]: > 100 µM
GI50 [49]: 9.6 µM
TGI [49]: 25.7 µM
GI50 [50]: 13.2 µM
TGI [50]: 64.5 µM
GI50 [51]: 14.4 µM
TGI [51]: 34.6 µM
GI50 [52]: 12.3 µM
TGI [52]: 27.9 µM
GI50 [53]: 19.4 µM
TGI [53]: > 100 µM
GI50 [54]: 8.85 µM
TGI [54]: > 100 µM
GI50 [55]: 14.2 µM
TGI [55]: > 100 µM
GI50 [56]: 18.1 µM
TGI [56]: 94.1 µM
